Test results reported in ChEMBL document CHEMBL1201862, “PubChem BioAssay data set” (2004).
Active and inactive are the calls of the source.

Tests used:
[1] = molecular target: T1, Tyrosine-protein phosphatase non-receptor type 22 (Homo sapiens, UniProt Q9Y2R2); assay: PTPN22 enzyme inhibitors – biochemical, fluorescence, LYP catalytic domain, selectivity assay for LMPTP inhibitor project, dose response (AID 652006); assay type: functional; conditions: read-out: IC50_Mean
T1 sequence (Q9Y2R2 whole entry): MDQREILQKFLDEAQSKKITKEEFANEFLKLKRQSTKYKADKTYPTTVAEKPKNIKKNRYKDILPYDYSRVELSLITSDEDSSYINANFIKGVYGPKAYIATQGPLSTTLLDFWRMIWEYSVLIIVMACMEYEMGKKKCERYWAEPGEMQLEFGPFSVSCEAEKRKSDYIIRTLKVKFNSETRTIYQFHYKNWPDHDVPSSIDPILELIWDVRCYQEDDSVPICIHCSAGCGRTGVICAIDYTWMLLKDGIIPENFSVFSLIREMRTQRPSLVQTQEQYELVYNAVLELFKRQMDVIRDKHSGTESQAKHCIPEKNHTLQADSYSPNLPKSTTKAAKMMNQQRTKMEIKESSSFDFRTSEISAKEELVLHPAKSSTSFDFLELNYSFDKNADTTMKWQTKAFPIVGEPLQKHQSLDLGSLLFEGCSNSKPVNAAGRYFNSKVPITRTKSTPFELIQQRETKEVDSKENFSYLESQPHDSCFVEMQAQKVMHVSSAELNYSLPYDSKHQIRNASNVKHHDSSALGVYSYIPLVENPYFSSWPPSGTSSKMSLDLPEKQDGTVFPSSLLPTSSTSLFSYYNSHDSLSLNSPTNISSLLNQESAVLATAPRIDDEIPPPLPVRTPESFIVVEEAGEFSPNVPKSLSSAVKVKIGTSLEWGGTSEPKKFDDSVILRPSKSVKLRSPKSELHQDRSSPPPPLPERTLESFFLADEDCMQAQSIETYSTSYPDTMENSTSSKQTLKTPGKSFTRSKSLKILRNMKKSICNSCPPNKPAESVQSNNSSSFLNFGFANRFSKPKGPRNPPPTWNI

[2] = molecular target: T2, Low molecular weight phosphotyrosine protein phosphatase (Homo sapiens, UniProt P24666); assay type: functional; conditions: read-out: IC50_Mean
T2 sequence (P24666 whole entry): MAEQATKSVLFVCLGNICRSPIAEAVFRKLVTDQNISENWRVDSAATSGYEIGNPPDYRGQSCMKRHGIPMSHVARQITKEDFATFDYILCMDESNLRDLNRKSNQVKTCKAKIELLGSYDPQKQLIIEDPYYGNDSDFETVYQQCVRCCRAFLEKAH

[3] = molecular target: Dual specificity tyrosine-phosphorylation-regulated kinase 1A (Rattus norvegicus, UniProt Q63470); assay type: biochemical, Homo sapiens
[4] = molecular target: T2, Low molecular weight phosphotyrosine protein phosphatase; assay type: functional; conditions: read-out: IC50_Mean; remark: listed apart in the source
[5] = molecular target: T3, Short transient receptor potential channel 4 (Mus musculus, UniProt Q9QUQ5); assay: block of DAMGO-driven TRPC4 calcium entry – cell-based, HEK293 TRPC4/mu-opioid, Fluo-4 calcium, dose response (AID 434942); assay type: functional;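 also: potency of inhibitors blocking the TRPC4 calcium response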
T3 sequence (Q9QUQ5 whole entry): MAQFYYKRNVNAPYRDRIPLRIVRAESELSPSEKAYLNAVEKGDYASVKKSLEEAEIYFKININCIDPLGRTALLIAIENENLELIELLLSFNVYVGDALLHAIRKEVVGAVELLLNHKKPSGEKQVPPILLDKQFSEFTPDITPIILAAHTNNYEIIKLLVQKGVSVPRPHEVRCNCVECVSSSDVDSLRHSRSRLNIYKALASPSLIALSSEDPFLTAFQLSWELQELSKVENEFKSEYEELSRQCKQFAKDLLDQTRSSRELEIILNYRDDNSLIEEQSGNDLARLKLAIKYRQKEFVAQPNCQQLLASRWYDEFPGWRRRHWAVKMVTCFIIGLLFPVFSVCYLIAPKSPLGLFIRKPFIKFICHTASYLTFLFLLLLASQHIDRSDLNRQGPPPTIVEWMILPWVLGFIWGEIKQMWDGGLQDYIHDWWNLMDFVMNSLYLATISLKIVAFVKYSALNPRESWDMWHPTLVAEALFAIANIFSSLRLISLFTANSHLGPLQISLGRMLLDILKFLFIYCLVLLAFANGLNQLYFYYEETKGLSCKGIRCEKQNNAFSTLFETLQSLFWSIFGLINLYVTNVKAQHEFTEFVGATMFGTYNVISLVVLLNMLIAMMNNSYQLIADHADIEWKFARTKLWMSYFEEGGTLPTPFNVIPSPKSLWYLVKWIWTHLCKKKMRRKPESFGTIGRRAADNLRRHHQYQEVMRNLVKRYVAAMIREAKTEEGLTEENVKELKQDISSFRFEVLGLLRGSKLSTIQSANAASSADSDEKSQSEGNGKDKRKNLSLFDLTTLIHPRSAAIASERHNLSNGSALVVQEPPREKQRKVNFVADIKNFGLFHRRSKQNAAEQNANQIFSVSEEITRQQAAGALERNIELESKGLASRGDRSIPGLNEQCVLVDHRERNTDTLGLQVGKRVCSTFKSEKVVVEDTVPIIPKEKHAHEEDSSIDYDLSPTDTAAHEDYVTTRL

[6] = molecular target: DNA dC->dU-editing enzyme APOBEC-3A (Homo sapiens, UniProt P31941); assay: SAR analysis of small molecule inhibitors of APOBEC3A DNA Deaminase via a fluorescence-based single-stranded DNA deaminase assay.; assay type: functional; conditions: read-out: IC50_Mean
Sequence of DNA dC->dU-editing enzyme APOBEC-3A (P31941 whole entry): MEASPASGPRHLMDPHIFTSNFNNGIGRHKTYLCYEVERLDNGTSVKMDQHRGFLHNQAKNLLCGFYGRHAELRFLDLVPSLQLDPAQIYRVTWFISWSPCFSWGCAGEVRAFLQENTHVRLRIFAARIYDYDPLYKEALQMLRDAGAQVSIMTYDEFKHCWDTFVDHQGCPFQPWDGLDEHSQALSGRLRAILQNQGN

[7] = molecular target: T4, Rac GTPase-activating protein 1 (Homo sapiens, UniProt Q9H0H5); assay: blockers of MgcRacGAP-driven Rac1 GTP hydrolysis – biochemical, ADP Hunter fluorescence, primary and confirmatory, confirmation (AID 624330); assay type: functional
T4 sequence (Q9H0H5 whole entry): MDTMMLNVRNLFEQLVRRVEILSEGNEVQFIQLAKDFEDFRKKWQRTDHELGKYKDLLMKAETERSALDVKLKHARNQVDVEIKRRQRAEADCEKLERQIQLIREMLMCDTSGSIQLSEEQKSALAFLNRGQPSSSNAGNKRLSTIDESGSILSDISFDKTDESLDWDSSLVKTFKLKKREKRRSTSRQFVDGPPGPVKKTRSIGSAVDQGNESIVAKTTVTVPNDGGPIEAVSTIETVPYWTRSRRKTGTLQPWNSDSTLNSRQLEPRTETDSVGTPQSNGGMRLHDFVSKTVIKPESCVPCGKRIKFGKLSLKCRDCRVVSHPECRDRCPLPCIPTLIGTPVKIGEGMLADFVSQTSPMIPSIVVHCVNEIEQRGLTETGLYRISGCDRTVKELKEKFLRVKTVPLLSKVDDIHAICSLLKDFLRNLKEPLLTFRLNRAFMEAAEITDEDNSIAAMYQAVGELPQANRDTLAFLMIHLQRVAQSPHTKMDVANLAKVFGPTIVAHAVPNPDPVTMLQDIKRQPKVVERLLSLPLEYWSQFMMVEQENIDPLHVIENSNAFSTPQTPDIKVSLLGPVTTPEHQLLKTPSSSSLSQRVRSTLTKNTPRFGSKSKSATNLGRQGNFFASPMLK

Coagulation factor XII = molecular target: T5, Coagulation factor XII (Homo sapiens, UniProt P00748); assay type: functional;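 also: activated factor XIIa alpha cleaving a fluorogenic AMC peptide substrate; inhibitor potency from loss of enzyme activity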
T5 sequence (P00748 whole entry): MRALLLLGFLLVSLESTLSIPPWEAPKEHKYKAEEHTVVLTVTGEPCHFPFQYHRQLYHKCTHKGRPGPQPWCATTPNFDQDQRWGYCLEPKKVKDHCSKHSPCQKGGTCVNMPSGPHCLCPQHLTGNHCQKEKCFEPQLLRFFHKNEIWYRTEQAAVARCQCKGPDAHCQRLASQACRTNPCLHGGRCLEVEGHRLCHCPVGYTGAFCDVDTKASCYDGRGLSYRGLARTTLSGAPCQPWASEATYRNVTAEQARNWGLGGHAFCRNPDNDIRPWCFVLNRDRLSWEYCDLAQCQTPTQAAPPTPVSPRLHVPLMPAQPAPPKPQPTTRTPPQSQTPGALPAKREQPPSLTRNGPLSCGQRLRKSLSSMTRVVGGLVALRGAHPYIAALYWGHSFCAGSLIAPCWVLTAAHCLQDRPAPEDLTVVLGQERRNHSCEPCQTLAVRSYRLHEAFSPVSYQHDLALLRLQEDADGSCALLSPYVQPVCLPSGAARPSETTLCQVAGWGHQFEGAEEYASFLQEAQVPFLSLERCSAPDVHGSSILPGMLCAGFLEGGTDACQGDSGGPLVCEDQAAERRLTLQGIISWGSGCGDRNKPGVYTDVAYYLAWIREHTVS

[8] = molecular target: DNA dC->dU-editing enzyme APOBEC-3G (Homo sapiens, UniProt Q9HC16); assay: inhibition of APOBEC3G ssDNA deamination – biochemical, fluorescence, single-stranded DNA substrate, SAR follow-up (AID 602136); assay type: functional; conditions: read-out: IC50_Mean
Sequence of DNA dC->dU-editing enzyme APOBEC-3G (Q9HC16 whole entry): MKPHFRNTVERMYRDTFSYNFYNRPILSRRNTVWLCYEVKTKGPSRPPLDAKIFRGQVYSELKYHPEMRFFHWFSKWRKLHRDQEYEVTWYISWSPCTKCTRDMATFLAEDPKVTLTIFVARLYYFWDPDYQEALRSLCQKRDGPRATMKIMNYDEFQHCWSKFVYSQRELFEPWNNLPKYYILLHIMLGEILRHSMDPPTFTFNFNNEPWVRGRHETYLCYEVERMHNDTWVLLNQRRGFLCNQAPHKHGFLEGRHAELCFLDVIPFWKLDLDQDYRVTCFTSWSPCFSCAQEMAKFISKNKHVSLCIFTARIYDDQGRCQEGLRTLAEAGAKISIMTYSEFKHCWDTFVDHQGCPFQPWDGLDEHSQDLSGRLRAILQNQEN

[9] = blockers of CRF-binding protein–CRF-R2 complex – cell-based, uHTS hits, 384-well, dose response (AID 651639); assay type: functional, Homo sapiens; conditions: read-out: IC50_Mean
[10] = molecular target: T6, Corticotropin-releasing factor receptor 2/Corticotropin-releasing factor-binding protein (Homo sapiens, UniProt P24387+Q13324); assay: Dose Response confirmation of uHTS hits for small molecule antagonists of the CRF-binding protein and CRF-R2 receptor complex.; assay type: functional; conditions: read-out: IC50_Mean
T6 sequence (Q13324 whole entry): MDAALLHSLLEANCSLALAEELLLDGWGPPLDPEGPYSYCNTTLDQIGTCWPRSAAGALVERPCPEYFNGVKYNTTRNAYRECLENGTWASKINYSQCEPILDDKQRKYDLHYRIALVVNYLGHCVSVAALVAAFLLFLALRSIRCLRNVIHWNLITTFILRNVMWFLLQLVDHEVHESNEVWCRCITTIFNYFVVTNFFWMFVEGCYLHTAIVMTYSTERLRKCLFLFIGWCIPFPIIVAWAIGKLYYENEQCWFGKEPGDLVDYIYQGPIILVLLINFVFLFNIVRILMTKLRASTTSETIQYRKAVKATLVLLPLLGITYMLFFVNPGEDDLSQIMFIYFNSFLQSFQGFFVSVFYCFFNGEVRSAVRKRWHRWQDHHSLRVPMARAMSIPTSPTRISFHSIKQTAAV
T6 sequence (P24387 whole entry): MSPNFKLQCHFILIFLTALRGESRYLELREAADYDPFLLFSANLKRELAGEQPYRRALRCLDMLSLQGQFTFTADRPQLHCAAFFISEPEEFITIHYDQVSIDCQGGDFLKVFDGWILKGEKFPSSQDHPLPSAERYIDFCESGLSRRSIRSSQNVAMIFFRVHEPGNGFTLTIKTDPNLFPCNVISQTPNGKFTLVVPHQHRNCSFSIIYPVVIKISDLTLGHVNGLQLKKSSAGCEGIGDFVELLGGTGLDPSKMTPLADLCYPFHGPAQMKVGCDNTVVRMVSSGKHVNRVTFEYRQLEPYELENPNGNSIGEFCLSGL

[11] = molecular target: T6, Corticotropin-releasing factor receptor 2/Corticotropin-releasing factor-binding protein; assay: activators of CRF receptor 2 with binding protein – uHTS hits, confirmation (AID 602473); assay type: functional; conditions: read-out: EC50_Mean
[12] = cAMP pathway inhibition in counterscreen cell line – TR-FRET cAMP detection, counter-screen for MC4R biased antagonist project, dose response (AID 602305); assay type: functional, cell-based;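 also: U2OS cells stimulated with forskolin near its EC80 as the cAMP inducer; potency is for inhibition of forskolin-stimulated cAMP signaling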
Melanocortin receptor 4 = Melanocortin receptor 4 (Homo sapiens, UniProt P32245); assay: inhibitors of MC4R cAMP signaling – cell-based, TR-FRET, biased antagonists, dose response (AID 602298); assay type: functional;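 also: antagonist potency against agonist-stimulated cAMP production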
Sequence of Melanocortin receptor 4 (P32245 whole entry): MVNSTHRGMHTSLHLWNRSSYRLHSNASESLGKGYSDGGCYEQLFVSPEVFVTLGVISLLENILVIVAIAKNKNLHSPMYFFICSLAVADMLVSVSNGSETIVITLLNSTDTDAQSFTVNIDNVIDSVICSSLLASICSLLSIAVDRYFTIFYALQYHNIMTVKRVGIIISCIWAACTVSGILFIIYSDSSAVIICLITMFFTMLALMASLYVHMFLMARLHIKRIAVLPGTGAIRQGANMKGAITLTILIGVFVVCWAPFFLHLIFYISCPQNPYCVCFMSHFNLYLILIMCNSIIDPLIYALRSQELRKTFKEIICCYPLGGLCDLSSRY

Vero = assay: cells; assay type: functional; conditions: Chlorocebus sabaeus
[13] = molecular target: T7, Polyadenylate-binding protein 1 (Homo sapiens, UniProt P11940); assay: MLLE binding blockers, Cy5 peptide tracer – biochemical, fluorescence polarization, Cy5-PAM2 peptide, secondary, miRNA deadenylation inhibitor project, dose response (AID 602260); assay type: functional; conditions: read-out: IC50_Mean
T7 sequence (P11940 whole entry): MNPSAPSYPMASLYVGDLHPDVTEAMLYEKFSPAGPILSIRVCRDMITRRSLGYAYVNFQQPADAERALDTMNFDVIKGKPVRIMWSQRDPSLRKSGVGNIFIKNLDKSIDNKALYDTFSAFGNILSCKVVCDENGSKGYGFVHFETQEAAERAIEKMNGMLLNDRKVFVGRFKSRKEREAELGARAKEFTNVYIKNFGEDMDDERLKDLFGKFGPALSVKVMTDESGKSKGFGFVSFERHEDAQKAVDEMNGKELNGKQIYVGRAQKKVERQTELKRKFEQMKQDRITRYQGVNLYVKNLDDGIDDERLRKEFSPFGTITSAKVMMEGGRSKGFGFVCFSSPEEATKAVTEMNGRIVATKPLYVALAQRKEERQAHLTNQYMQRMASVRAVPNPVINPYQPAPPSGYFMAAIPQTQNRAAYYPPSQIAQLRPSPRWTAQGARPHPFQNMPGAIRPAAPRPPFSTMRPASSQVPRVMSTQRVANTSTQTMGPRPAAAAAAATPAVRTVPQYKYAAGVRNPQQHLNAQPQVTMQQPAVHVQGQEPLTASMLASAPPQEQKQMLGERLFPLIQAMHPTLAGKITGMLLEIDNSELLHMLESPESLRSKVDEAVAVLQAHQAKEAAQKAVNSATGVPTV

[14] = molecular target: Mitochondrial peptide methionine sulfoxide reductase (Bos taurus, UniProt P54149); assay: Absorbance-based biochemical high throughput dose response assay for activators of Methionine sulfoxide reductase A (MsrA).; assay type: functional
Sequence of Mitochondrial peptide methionine sulfoxide reductase (P54149 whole entry, the tested form may be a part): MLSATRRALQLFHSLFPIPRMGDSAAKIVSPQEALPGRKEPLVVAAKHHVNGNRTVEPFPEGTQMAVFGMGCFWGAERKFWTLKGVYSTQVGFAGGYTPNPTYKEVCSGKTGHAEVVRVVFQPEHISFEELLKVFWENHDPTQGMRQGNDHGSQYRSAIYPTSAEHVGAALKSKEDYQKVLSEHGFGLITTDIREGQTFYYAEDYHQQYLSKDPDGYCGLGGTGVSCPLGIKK

[15] = molecular target: T7, Polyadenylate-binding protein 1; assay: MLLE domain peptide-binding blockers, IC50 – biochemical, fluorescence polarization, FITC-PAM2 peptide, dose response (AID 602259); assay type: functional; conditions: read-out: IC50_Mean
Genome polyprotein = Genome polyprotein (dengue virus type 2, UniProt P29990); assay: flavivirus cap methylation enzyme inhibition – biochemical, confirmation dose response, primary screen (AID 588689); assay type: functional
Sequence of Genome polyprotein (P29990 2492-3391 limits assumed): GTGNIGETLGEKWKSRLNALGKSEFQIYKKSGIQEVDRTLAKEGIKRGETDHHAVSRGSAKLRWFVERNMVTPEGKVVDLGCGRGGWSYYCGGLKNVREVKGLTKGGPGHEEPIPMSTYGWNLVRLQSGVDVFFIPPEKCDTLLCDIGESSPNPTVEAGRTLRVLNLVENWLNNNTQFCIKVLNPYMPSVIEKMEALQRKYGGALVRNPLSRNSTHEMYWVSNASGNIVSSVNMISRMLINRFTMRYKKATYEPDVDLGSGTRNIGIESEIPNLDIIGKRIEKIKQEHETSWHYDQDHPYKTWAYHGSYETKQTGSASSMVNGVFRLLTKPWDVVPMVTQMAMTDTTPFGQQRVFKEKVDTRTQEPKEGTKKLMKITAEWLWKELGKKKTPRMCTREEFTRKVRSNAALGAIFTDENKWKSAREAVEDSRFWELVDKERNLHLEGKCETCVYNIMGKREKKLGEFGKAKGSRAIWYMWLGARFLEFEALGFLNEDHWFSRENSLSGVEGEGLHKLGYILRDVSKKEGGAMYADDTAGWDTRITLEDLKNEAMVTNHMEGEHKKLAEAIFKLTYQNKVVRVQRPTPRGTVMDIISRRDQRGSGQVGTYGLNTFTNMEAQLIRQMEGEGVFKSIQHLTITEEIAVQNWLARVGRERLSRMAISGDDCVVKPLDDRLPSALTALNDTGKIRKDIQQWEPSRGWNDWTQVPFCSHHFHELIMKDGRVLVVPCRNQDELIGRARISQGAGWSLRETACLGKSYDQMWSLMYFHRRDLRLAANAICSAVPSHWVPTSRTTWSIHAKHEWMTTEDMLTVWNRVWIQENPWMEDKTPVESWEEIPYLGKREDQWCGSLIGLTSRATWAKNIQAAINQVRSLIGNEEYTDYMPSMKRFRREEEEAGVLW

[16] = THP-1 cell cytotoxicity, cytotoxicity control, set 4 (AID 504911); assay type: functional; conditions: Mycobacterium tuberculosis
[17] = molecular target: T8, Probable nicotinate-nucleotide adenylyltransferase (Staphylococcus aureus (strain N315), UniProt P65502); assay type: functional, Staphylococcus aureus subsp. aureus N315;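 as to IC50 Mean: confirmatory dose-response retesting of NadD inhibitor hits first found in an ultra-high-throughput screen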
T8 sequence (P65502 whole entry): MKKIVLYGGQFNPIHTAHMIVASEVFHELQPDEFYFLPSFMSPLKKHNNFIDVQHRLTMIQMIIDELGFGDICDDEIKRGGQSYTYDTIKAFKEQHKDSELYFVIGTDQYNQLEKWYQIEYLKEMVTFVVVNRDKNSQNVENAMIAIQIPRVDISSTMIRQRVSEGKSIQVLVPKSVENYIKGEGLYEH

[18] = molecular target: T8, Probable nicotinate-nucleotide adenylyltransferase; assay type: functional, Staphylococcus aureus subsp. aureus N315; conditions: read-out: IC50_Mean
Cytochrome P450 3A4 = Cytochrome P450 3A4 (Homo sapiens, UniProt P08684); conditions: Potency;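 also: confirmatory qHTS run detecting inhibitors and substrates of CYP3A4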
Sequence of Cytochrome P450 3A4 (P08684 whole entry): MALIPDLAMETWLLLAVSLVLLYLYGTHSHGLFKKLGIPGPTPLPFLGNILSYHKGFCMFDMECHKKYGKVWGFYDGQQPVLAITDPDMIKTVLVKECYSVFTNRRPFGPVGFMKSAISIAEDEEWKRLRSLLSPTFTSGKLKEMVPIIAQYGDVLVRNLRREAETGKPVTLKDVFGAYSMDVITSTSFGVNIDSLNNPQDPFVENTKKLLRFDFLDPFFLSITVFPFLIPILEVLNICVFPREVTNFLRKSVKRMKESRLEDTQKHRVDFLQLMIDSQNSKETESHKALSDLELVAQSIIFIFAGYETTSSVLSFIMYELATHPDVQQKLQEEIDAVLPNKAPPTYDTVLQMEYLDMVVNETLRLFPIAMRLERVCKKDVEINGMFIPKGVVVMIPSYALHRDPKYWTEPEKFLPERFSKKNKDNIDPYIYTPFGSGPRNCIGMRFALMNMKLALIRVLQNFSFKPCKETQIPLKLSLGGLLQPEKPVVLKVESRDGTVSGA

[19] = molecular target: Aryl hydrocarbon receptor (Homo sapiens, UniProt P35869); conditions: Potency;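 also: confirmatory quantitative high-throughput screen measuring activation of the AhR signaling pathway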
Sequence of Aryl hydrocarbon receptor (P35869 whole entry): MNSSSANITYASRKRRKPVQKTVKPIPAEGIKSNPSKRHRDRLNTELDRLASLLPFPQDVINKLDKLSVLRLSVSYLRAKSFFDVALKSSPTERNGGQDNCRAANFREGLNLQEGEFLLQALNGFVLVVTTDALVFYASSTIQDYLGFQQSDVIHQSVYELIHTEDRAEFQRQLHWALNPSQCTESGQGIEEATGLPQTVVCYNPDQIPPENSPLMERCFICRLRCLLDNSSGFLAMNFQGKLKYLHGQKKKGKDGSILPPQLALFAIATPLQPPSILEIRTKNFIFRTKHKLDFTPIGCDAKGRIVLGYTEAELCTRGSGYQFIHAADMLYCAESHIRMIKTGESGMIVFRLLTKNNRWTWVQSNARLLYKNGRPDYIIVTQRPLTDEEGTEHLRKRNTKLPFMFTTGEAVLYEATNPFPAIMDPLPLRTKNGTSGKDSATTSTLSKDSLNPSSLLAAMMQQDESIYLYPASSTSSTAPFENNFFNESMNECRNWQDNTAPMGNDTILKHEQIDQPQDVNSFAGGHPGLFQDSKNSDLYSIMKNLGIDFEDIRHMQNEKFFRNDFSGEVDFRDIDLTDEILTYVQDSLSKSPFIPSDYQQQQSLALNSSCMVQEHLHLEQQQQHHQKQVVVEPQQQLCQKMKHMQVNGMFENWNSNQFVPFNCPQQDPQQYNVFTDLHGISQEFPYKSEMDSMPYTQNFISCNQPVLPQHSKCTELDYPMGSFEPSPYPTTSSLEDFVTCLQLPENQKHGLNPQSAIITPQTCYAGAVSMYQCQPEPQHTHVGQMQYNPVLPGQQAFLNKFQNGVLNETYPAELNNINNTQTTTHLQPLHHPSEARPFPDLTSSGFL

Cc1cc(N2CCC(C)CC2)nc2cccc(O)c12
IC50 [1]: 80 µM (inactive) | IC50 [2]: 9.87 µM (active) | AC50 [3]: 14.3 µM (active) | IC50 [4]: 13.2 µM (active) | EC50 [5]: 335 nM (active)

O=C(CNCc1ccccn1)Nc1cc(C(F)(F)F)ccc1N1CCOCC1
IC50 [6]: > 99 µM (inactive) | IC50 [7]: 138 µM (active) | IC50 (Coagulation factor XII): > 50 µM (inactive) | IC50 [8]: > 99 µM (inactive)

CC(=O)NC(Cc1ccc(C)cc1)C(=O)NC1CCN(c2ncccc2[N+](=O)[O-])CC1 (centres undefined)
IC50 [9]: 5.07 µM (active) | IC50 [10]: 2.09 µM (active) | EC50 [11]: > 53 µM (inactive)

COC(=O)C=C1CCC2C3CCC4=CC(=O)C(Br)CC4(C)C3C(=O)CC12C (centres undefined)
IC50 [12]: > 64.6 µM (inactive) | IC50 (Melanocortin receptor 4): > 64.6 µM (inactive) | CC50 (Vero): > 25 µM (active)

O=C1c2ccccc2C(=O)c2c(/C=C/N3CCCCC3)ccnc21
IC50 [13]: > 66 µM (inactive) | EC50 [14]: > 104 µM (inactive) | IC50 [15]: 50.2 µM (inactive) | IC50 (Genome polyprotein): 61.6 µM (active)

COc1cccc(NC(=O)CSc2nc3c(c(=O)[nH]2)CCC3)c1
CC50 [16]: > 100 µM (active)

Nc1[nH]c(C(=O)c2ccccc2)c(-c2ccccc2Br)c1C(=O)NCc1ccc(-c2ccccc2)cc1
IC50 [17]: 26.5 µM (active) | IC50 [18]: 65.9 µM (active)

COc1ccc2nc(N)sc2c1
AC50 (Cytochrome P450 3A4): 31.6 µM (inconclusive) | AC50 [19]: 44.7 µM (inconclusive)
